Data published in US20250212873A1, “VOLATILE HDAC INHIBITORS FOR THERAPEUTIC AND PLANT APPLICATIONS” (The Regents of the University of California, priority 2022, published 2025).

Experiments:
[1] = test system: SK-MEL-5 Cancer cell line; test: Cancer cell viability assay, SK-MEL-5; type: cell-based; details: triplicates
Experimental: Cells were maintained in a 37° C. incubator with 5% CO2 throughout the experiment. Compound stocks were dissolved in 10% DMSO, but final concentrations were made fresh in complete media as needed. 10% DMSO solvent was used as control in complete media. Cells were seeded onto 12-well plates and allowed 12-24 hours until treatment began to allow cells to adhere to wells. This was followed by minimum 5-day treatment of compounds, changing the media with treatment every 48 hours. Cell lines A549, PC3, and SK-MEL-5 were seeded at 8000 cells/well which would provide 80-100% confluency after 6-day growth. SH-SY5Y was seeded at 8000 cells/well then 16,000 cells/well due to slower growth and given at least 10 days for sufficient growth. After allotted growth times, cell counts were performed via Countess™ automated cell counter. All assays were completed with a minimum of triplicate replicates for all conditions and analyzed through GraphPad Prism One-way ANOVA for significance.

[2] = test system: Arabidopsis thaliana leaflets; test: RNA-seq of leaflets of Arabidopsis exposed to diacetyl; type: in vivo
Experimental: A. thaliana plants (Col-0) that had been transplanted at day 7 to soil were placed in the experimental room for 2 days to acclimate (23°° C. with a 12-hour light/dark cycle). A single potted plant was placed in a 4-liter clear glass jar, with openings attached to a vacuum to allow for air exchange. A small beaker containing 1 ml of 1% diacetyl in PO or PO alone were placed inside the jar. Plants were watered at 2.5 days. After 5 days, individual leaflets were dissected, and flash frozen in liquid nitrogen. Trizol-based RNA isolation was carried out as above. Two biological replicates were performed for each condition, with an average of 68,355,820 reads/replicate, with an average of 95% mapped. Multiplexed libraries were made from total RNA input using the Illumina TruSeq RNA sample preparation kit (v2) and 50 bps single-end sequencing was done using the NextSeq500.
The HDACs are also important for gene expression in the shoots as well. Young plants in pots were exposed to vapors of diacetyl from a solution of the same concentration as before and performed an RNASeq analyses. 321 genes were differentially regulated in the leaflet of Arabidopsis thaliana following exposure to volatile diacetyl for 5 days (FDR<0.05). These DEGs are distributed across multiple chromosome locations and represent genes of diverse molecular functions (FIG. 27C). […]

[3] = test system: A. thaliana plants (Col-0); test: Weed killing assay; type: in vivo, Arabidopsis thaliana; details: 1% (volume/volume) in PO, 7 days vapor exposure, 4 weeks recovery
Source text: Since large scale changes in gene expression occur it is presumed that higher doses of some of the compounds could negatively affect some plants, even causing death. Since Arabidopsis thaliana is also considered a type of weed and goes by the common name Thale cress, it was used as a model to test the weed killing potential at higher doses. In order to evaluate the activity of some of these volatiles in plant killing twenty-seven day old A. thaliana plants (Col-0), that had been transplanted at day 7 to soil, were placed in 10-gallon glass aquarium as chamber along with a petridish containing 2 ml of chemical dissolved in PO at 1% (volume/volume) or PO alone were placed at the other side of the container. Plants were exposed to odor vapors for 7 days and observed for death.
Twenty-seven day old A. thaliana plants (Col-0), that had been transplanted at day 7 to soil, were placed in 10-gallon glass aquarium as chamber along with a petridish containing 2 ml of chemical dissolved in PO at 1% (volume/volume) or PO alone were placed at the other side of the container. Plants were exposed to odor vapors for 7 days and observed for death.

[4] = test system: A. thaliana plants (Col-0); test: Cold tolerance assay; type: in vivo, Arabidopsis thaliana; details: cold treatment to -10° C., scored after 5 days; controls ~30%
Experimental: HDACs have also been implicated in responses to a number of abiotic stresses, such as temperature, drought, salt, etc in a variety of ways (M. Luo, et al., Frontiers in Plant Science 8, (2017)). One of the phenotypes that can be rapidly tested in a laboratory is tolerance to cold temperatures in Arabidopsis. […] The yellowing of leaves was determined after 5 days and the controls ˜30% of the leaves turned yellow-brown in the classic cold response previously documented.
Twenty six day old A. thaliana plants (Col-0), that had been transplanted at day 7 to soil, were cold-acclimatized the plants for 7 days at 4° C., and then transferred to respective odor exposure chambers with a petridish containing 2 ml of chemical dissolved in PO or PO alone in a freezing chamber in which temperatures went down every 2° C. for 0.5 h and maintained for 1 hour, and it dropped up to −10° C. […] The survival rate was determined after 5 days. […] One-way analysis of Variance (ANOVA) between groups was performed for plant exposure quantitative data using Graph Pad Prism 9.

## CC(=O)C(C)=O [2,3-butanedione]
[1]; 33 uM
  changes in proliferation, SK-MEL-5: No significant changes in proliferations
[1]; 100 uM
  changes in proliferation, SK-MEL-5: No significant changes in proliferations
[2]; volatile exposure
  gene expression in leaflets (RNA-seq): significant changes in gene expression
[2]; volatile exposure 5 days, 1% in PO, FDR<0.05
  genes differentially regulated in the leaflet: 321 genes
[3]
  plants killed (dead): 6 of 8
[4]
  yellow leaves after freezing: ~20%
